This passage reports IC50 results from patent publication US11718612B2, “Inhibitors of receptor interacting protein kinase I for the treatment of disease” (Board of Regents, The University of Texas System, priority 2019, dated 2023).

One may read the IC50 as the midpoint of a concentration-inhibition curve.

Some results are limits rather than exact numbers.

The target of one experiment is RIPK1 (Homo sapiens (Human), UniProt Q13546). The experiment can be described thus: ADP-Glo kinase assay, RIPK1 activity. It counts as biochemical. The conditions noted are these: 5 nM RIPK1, 50 μM ATP, 6 hr reaction. As for the experimental part:
In order to measure RIPK1 activity the ADP-Glo kinase assay (Promega, Catalog #V7002) was used to measure the conversion of ATP to ADP. This enzymatic assay was performed in a 384-well white, Optiplate (Perkin Elmer, Catalog #6007299) with assay buffer consisting of 50 mM HEPES pH 7.5 (Gibco, Catalog #15630-080), 50 mM NaCl (Teknova, Catalog #S0252), 30 mM MgCl2 (Ambion, Catalog #AM9530G), 1 mM DTT (Santa Cruz Biotechnology, Catalog #sc-29089), 0.05% BSA (Sigma, Catalog #A3059-50G) and 0.02% CHAPS (Sigma, Catalog #C5070-5G). Stock solutions of the test compounds were prepared in 100% DMSO (Sigma, Catalog #D2650) and serially diluted 1:3 using 100% DMSO. Compounds were additionally diluted 1:40 in assay buffer, and 2 μL/well were transferred to the assay plate. 4 μL/well (final concentration of 5 nM) of RIPK1 protein (SignalChem, Catalog #R07-11G-05) diluted in assay buffer and added to the assay plate followed by a 10 minute preincutation at room temperature. 4 μL/well of ATP (Promega, Catalog #V7002) (final concentration of 50 μM) diluted in assay buffer were then added to the assay plate followed by a 6 hr reaction time. Final concentrations of RIPK1 and ATP refer to a 10 μL volume. Luminescence was measured using a BioTek Synergy™ NEO plate reader. IC50 values were calculated using a four-parameter logistic curve fit using Genedata Screener software.

The next experiment deals with U937 cells. The experiment can be described thus: Human U937 cellular necroptosis assay. The class given is cell-based. The conditions noted are these: U-937; U937 cells stimulated with 25 ng/mL human TNFalpha and 25 μM z-VAD-FMK; 22 hr; Cell Titer-Glo viability. As for the experimental part: Human U937 Cellular Necroptosis Assay
The human monocytic cell line U937 (CRL-1593.2) may be purchased from ATCC. The cells are routinely maintained in RPMI-1640 Medium (Gibco, Catalog #11875-093) supplemented with 10% heat inactivated fetal bovine serum (Gibco, Catalog #16140-071), 100 units/mL penicillin and 100 μg/mL streptomycin (Gibco, Catalog #15140-122), in a humidified incubator (37° C., 5% CO2). For the assay, cells are resuspended in RPMI-1640 phenol red free Media (Gibco, Catalog #11835-030) supplemented with 10% fetal bovine serum (Sigma, Catalog #F2442), 100 units/mL penicillin and 100 ug/mL streptomycin. […] Stock solutions of the test compounds are prepared in 100% DMSO (Sigma, Catalog #D2650) and serially diluted 1:3 using 100% DMSO. Compounds are additionally diluted 1:40 in assay medium, and 10 μL/well was transferred to the plate. Following the compound addition, the plate is incubated at 37° C. and 5% CO2 for 22 hr. After 22 hr, viability is assessed with the addition of 20 μL of Cell Titer-Glo 2.0 (Promega, Catalog #G9243). The tissue culture plate is shaken on an orbital shaker at 300 RPM for 15 minutes at room temperature in the dark. Luminescence is measured using a PerkinElmer Envision™ plate reader. IC50 values are calculated using a four-parameter logistic curve fit using Genedata Screener software.

Sequence of RIPK1 (Q13546 1-327): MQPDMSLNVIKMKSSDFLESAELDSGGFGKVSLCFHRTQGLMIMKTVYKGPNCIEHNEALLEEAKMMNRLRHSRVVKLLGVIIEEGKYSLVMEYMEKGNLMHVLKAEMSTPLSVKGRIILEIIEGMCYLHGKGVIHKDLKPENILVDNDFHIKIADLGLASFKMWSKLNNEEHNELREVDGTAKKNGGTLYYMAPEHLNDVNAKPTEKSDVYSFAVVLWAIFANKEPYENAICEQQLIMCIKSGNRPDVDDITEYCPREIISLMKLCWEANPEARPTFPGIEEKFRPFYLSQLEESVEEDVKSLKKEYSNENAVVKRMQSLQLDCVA

Regarding `Cc1cc(C(=O)Nc2cccc(Cl)c2F)nn1Cc1ccccc1` [Example 5, 1-benzyl-N-(3-chloro-2-fluoro-phenyl)-5-methyl-pyrazole-3-carboxamide], the IC50 at RIPK1 was 14.5 µM.
Consider `Cc1c(F)c(C(=O)Nc2cccc(Cl)c2F)nn1Cc1ccccc1` [Example 6, 1-Benzyl-N-(3-chloro-2-fluorophenyl)-4-fluoro-5-methyl-1H-pyrazole-3-carboxamide], for which, at RIPK1, the IC50 was 0.92 µM.
The same measure, in the same setting: next, `O=C(Nc1cccc(Cl)c1F)c1ccn(Cc2ccccc2)n1` [Example 7, 1-Benzyl-N-(3-chloro-2-fluorophenyl)-1H-pyrazole-3-carboxamide]: 12.1 µM.
As for `O=C(Nc1cccc(Cl)c1F)c1cc(O)n(Cc2cnccn2)n1` [Example 8, N-(3-chloro-2-fluoro-phenyl)-5-hydroxy-1-(pyrazin-2-ylmethyl)pyrazole-3-carboxamide], the IC50 on RIPK1 stood at 31.2 µM.
The same measure, in the same setting: next, `O=C(Nc1cccc(Cl)c1F)c1nc(Cc2ccccc2)c[nH]1` [Example 14, 4-Benzyl-N-(3-chloro-2-fluoro-phenyl)-1H-imidazole-2-carboxamide]: 6.96 µM; `O=C1c2nc(Cc3ccccc3)cn2CCN1c1cccc(Cl)c1F` [Example 15, 2-Benzyl-7-(3-chloro-2-fluoro-phenyl)-5,6-dihydroimidazo[1,2-a]pyrazin-8-one]: 3.15 µM.
On to `O=C1c2nc(Cc3ccccc3)c(Cl)n2CCN1c1cccc(Cl)c1F` [Example 16, 2-Benzyl-3-chloro-7-(3-chloro-2-fluoro-phenyl)-5,6-dihydroimidazo[1,2-a]pyrazin-8-one], for which the half-inhibitory concentration (IC50) on RIPK1 worked out at 0.123 µM.
For `O=C(Nc1cccc(Cl)c1F)c1nc(Cc2ccccc2)c(Cl)[nH]1` [Example 18, 4-Benzyl-5-chloro-N-(3-chloro-2-fluoro-phenyl)-1H-imidazole-2-carboxamide], the half-inhibitory concentration (IC50) at RIPK1 amounted to 18.7 µM.
`Cc1nc(C(=O)Nc2cccc(Cl)c2F)nn1Cc1cccc(C#N)c1` [Example 34, N-(3-chloro-2-fluoro-phenyl)-1-(3-cyano-benzyl)-5-methyl-1H-1,2,4-triazole-3-carboxamide]: the IC50 at RIPK1 came to 0.472 µM.
For the compound `O=C(Nc1ccc(Cl)c(Cl)c1F)c1ncn(Cc2ccccc2)n1` [Example 37, 1-benzyl-N-(3,4-dichloro-2-fluoro-phenyl)-1H-1,2,4-triazole-3-carboxamide], at RIPK1, the IC50 amounted to 1.1 µM.
Turning to `O=C(Nc1cc(C(F)(F)F)cc(Cl)c1F)c1ncn(Cc2ccccc2)n1` [Example 38, 1-benzyl-N-(3-chloro-2-fluoro-5-(trifluoro-methyl)phenyl)-1H-1,2,4-triazole-3-carboxamide], the half-inhibitory concentration (IC50) at RIPK1 turned out to be 1.29 µM.
In the case of `N#Cc1ccc(NC(=O)c2ncn(Cc3ccccc3)n2)c(F)c1Cl` [Example 39, 1-benzyl-N-(3-chloro-4-cyano-2-fluorophenyl)-1H-1,2,4-triazole-3-carboxamide], the IC50 at RIPK1 came out at 1.41 µM.
Still for that read-out and setting: under `O=C(Nc1ccc(Br)c(Cl)c1F)c1ncn(Cc2ccccc2)n1` [Example 40, 1-benzyl-N-(4-bromo-3-chloro-2-fluoro-phenyl)-1H-1,2,4-triazole-3-carboxamide] stands 1.65 µM; under `COc1ccc(N(C)C(=O)c2ncn(Cc3ccccc3)n2)c(F)c1Cl` [Example 41, 1-benzyl-N-(3-chloro-2-fluoro-4-methoxy-phenyl)-N-methyl-1H-1,2,4-triazole-3-carboxamide], 9.25 µM; under `O=C1c2nc(Cc3ccccc3)c(Cl)n2CCN1c1cccc(Cl)c1` [Example 42, 2-benzyl-3-chloro-7-(3-chlorophenyl)-6,7-dihydroimidazo[1,2-a]pyrazin-8(5H)-one], 0.318 µM.
As to `O=C1c2nc(Cc3ccccc3)cn2CCN1c1cccc(Cl)c1` [Example 43, 2-benzyl-7-(3-chlorophenyl)-6,7-dihydroimidazo[1,2-a]pyrazin-8(5H)-one], the 50% inhibitory concentration (IC50) at RIPK1 was determined as 13.7 µM.
As for `Cn1cc(C(=O)Nc2cccc(Cl)c2F)nc1Cc1ccccc1` [Example 44, 2-benzyl-N-(3-chloro-2-fluorophenyl)-1-methyl-1H-imidazole-4-carboxamide], at RIPK1, the IC50 is > 33 µM.
With `O=C(Nc1cccc(Cl)c1F)c1c[nH]c(Cc2ccccc2)n1` [Example 45, 2-benzyl-N-(3-chloro-2-fluorophenyl)-1H-imidazole-4-carboxamide], at RIPK1, the IC50 amounted to 48.6 µM.
As to `O=C1c2cc(Cc3ccccc3)ccc2CN1c1ccccc1F` [Example 48, 6-Benzyl-2-(2-fluorophenyl)isoindolin-1-one], the IC50 on RIPK1 was found to be 2.47 µM.
Still for that read-out and setting: under `O=C1c2nc(Cc3ccccc3)ccc2CN1c1ccccc1F` [Example 49, 2-Benzyl-6-(2-fluorophenyl)-5,6-dihydro-7H-pyrrolo[3,4-b]pyridin-7-one] stands 3.68 µM; under `Cc1cc(NC(=O)c2ncn(Cc3ccccc3)n2)ccc1OC(F)(F)F` [Example 53, 1-benzyl-N-(3-methyl-4-(trifluoromethoxy)-phenyl)-1H-1,2,4-triazole-3-carboxamide], 4.91 µM.
`N#CCc1cc(Cl)c(F)c(N2CCc3c(nn(Cc4cccc(F)c4F)c3Cl)C2=O)c1` [Example 84, 2-(3-chloro-5-(3-chloro-2-(2,3-difluorobenzyl)-7-oxo-2,4,5,7-tetrahydro-6H-pyrazolo[3,4-c]pyridin-6-yl)-4-fluorophenyl)acetonitrile] yielded a half-maximal inhibitory concentration (IC50) in the experiment with U937 cells of 142 nM.
In turn, `CC(=O)NCc1cc(Cl)c(F)c(N2CCc3c(nn(Cc4cccc(F)c4F)c3Cl)C2=O)c1` [Example 85, N-(3-chloro-5-(3-chloro-2-(2,3-difluorobenzyl)-7-oxo-2,4,5,7-tetrahydro-6H-pyrazolo[3,4-c]pyridin-6-yl)-4-fluorobenzyl)acetamide] yielded a concentration for half-maximal inhibition (IC50) in the experiment on U937 cells of 1040 nM.
`Cc1cnc(Cn2cnc(C(=O)Nc3cccc(Cl)c3F)n2)cn1` [Example 91, N-(3-chloro-2-fluorophenyl)-1-((5-methylpyrazin-2-yl)methyl)-1H-1,2,4-triazole-3-carboxamide] showed an IC50 in the experiment on U937 cells of 2560 nM.
Still for that read-out and setting: next, `NCc1cc(Cl)c(F)c(NC(=O)c2ncn(Cc3ccccc3)n2)c1` [Example 92, N-(5-(aminomethyl)-3-chloro-2-fluorophenyl)-1-benzyl-1H-1,2,4-triazole-3-carboxamide]: 1650 nM.
As to `CS(=O)(=O)NCc1cc(Cl)c(F)c(NC(=O)c2ncn(Cc3ccccc3)n2)c1` [Example 93, 1-Benzyl-N-(3-chloro-2-fluoro-5-(methylsulfonamidomethyl)phenyl)-1H-1,2,4-triazole-3-carboxamide], in the experiment on U937 cells, the concentration for half-maximal inhibition (IC50) stood at 1500 nM.
Regarding `O=C(Nc1cc(CO)cc(Cl)c1F)c1ncn(Cc2ccccc2)n1` [Example 94, 1-Benzyl-N-(3-chloro-2-fluoro-5-(hydroxymethyl)phenyl)-1H-1,2,4-triazole-3-carboxamide], half-maximal inhibition with U937 cells (IC50) was put at 797 nM.
Compound `COCCOCc1cc(Cl)c(F)c(NC(=O)c2ncn(Cc3ccccc3)n2)c1` [Example 95] registered an IC50 with U937 cells of 529 nM.
The same measure, in the same setting: under `N#CCc1cc(Cl)c(F)c(NC(=O)c2ncn(Cc3ccccc3)n2)c1` [Example 96, 1-Benzyl-N-(3-chloro-5-(cyanomethyl)-2-fluorophenyl)-1H-1,2,4-triazole-3-carboxamide] stands 347 nM.
For the compound `O=C(Nc1cc(Cn2ccnc2)cc(Cl)c1F)c1ncn(Cc2ccccc2)n1` [Example 97, N-(5-((1H-imidazol-1-yl)methyl)-3-chloro-2-fluorophenyl)-1-benzyl-1H-1,2,4-triazole-3-carboxamide], the IC50 with U937 cells amounted to 1180 nM.
Turning to `O=C(Nc1cc(Cn2cnc3ccccc32)cc(Cl)c1F)c1ncn(Cc2ccccc2)n1` [Example 98, N-(5-((1H-benzo[d]imidazol-1-yl)methyl)-3-chloro-2-fluorophenyl)-1-benzyl-1H-1,2,4-triazole-3-carboxamide], the half-maximal inhibitory concentration (IC50) with U937 cells was 3860 nM.
In turn, `O=C(Nc1cc(Cn2cccn2)cc(Cl)c1F)c1ncn(Cc2ccccc2)n1` [Example 99, N-(5-((1H-pyrazol-1-yl)methyl)-3-chloro-2-fluorophenyl)-1-benzyl-1H-1,2,4-triazole-3-carboxamide] registered a half-maximal inhibitory concentration (IC50) in the experiment on U937 cells of 2540 nM.
